Experimental data published in patent EP3046573B1, “AMYLIN ANALOGUES” (Zealand Pharma A/S, priority 2013, dated 2015).
Where two headings read alike, the source gives them in different places. Numbered stars: 1 amine (or outer) side, 2 acyl side, 3 side chain; on linkers, the order of the positions; unused ones are H or OH. Bridge positions count the residues as written; N and C are the ends. Square brackets hold non-standard residues; d marks the D form. Peptide text beside a SMILES is read from it. * marks the point of attachment. C20 diacid = O=C(O)CCCCCCCCCCCCCCCCCCC(=O)*; γGlu = O=C(O)[C@H](CCC(=O)[*:2])N[*:1]; NMeI = CC[C@H](C)[C@H](NC)C(=O)O; Sar = CNCC(=O)O

How the values were obtained:
[1] = target: T1, human amylin receptor 3 (hAMYR3) consisting of hCTR2 co-expressed with human Receptor Activity Modifying Protein 3 (hRAMP3) (Homo sapiens, UniProt O60896+P30988); assay: hAMYR3 assay: induction of cAMP (AlphaScreen cAMP Assay kit) in COS7 cells expressing hAMYR3; format: cell-based
T1 construct: expressed in transfected cells
T1 sequence (P30988 25-474): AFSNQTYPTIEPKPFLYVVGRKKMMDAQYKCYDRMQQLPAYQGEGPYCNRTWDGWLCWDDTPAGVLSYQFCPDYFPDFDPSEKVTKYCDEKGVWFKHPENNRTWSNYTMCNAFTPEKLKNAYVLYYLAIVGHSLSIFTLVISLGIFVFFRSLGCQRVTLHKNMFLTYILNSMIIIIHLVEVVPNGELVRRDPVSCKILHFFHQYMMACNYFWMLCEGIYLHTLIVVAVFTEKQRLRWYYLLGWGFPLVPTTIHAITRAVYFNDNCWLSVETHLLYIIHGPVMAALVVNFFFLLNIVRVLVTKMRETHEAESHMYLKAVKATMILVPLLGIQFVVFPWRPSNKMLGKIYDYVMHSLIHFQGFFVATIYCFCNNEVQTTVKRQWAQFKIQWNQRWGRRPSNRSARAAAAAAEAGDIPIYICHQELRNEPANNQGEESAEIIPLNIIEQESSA
T1 sequence (O60896 24-148 partner): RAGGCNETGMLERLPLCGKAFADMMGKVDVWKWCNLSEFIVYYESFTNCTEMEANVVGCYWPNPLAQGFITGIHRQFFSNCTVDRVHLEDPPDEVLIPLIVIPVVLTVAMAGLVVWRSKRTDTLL
Outline: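 cAMP accumulation read by AlphaScreen in lysates of RAMP-naive COS7 cells stably transfected with hCTR2 plus hRAMP3. Cells exposed to peptide dilutions for 15 min, 37° C, with 100 µM IBMX; 4PL fitting gave EC50 and efficacy relative to pramlintide.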

[2] = Solubility assessment (turbidity absorbance at 325 nm); format: physicochemical; settings: stock 2 mg/ml diluted 1:1, ambient temperature (typically 25°C), n=1; for Solubility, Acetate buffer pH 4: 100 mM acetate buffer pH 4.0; for Solubility, Acetate buffer pH 5: 100 mM acetate buffer pH 5.0; for Solubility, Histidine buffer pH 6: 100 mM histidine buffer pH 6.0; for Solubility, Histidine buffer pH 7: 100 mM histidine buffer pH 7.0; for Solubility, Phosphate buffer pH 6: 100 mM phosphate buffer pH 6.0; for Solubility, Phosphate buffer pH 7: 100 mM phosphate buffer pH 7.0; for Solubility, Phosphate buffer pH 7.5: 100 mM phosphate buffer pH7.5
Outline: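 Turbidimetric screen across pH 4.0–7.5 in 100 mM acetate, histidine and phosphate buffers. A 2 mg/ml peptide stock (pH 2.5) was diluted 1:1 into each, then A325 measured at ambient temperature; values ≤ 0.02 AU denoted solubility of 1 mg/ml or more.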

[3] = target: T2, human calcitonin receptor (hCTR2) (Homo sapiens, UniProt P30988); assay: hCTR2 assay: induction of cAMP (AlphaScreen cAMP Assay kit) in COS7 cells expressing hCTR2; format: cell-based
T2 construct: expressed in transfected cells
T2 sequence (P30988 25-474): T1 sequence (P30988 25-474)
Outline: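 Peptide-induced cAMP in hCTR2-expressing COS7 cells, 15 min at 37° C with phosphodiesterase inhibitor IBMX (100 µM), detected by AlphaScreen; potency from 4PL curves.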

Compound: CC[C@H](C)[C@@H](C(=O)N[C@@H](CC(C)C)C(=O)N[C@@H](CO)C(=O)N[C@@H](CO)C(=O)N[C@H](C(=O)N[C@@H](CC(N)=O)C(=O)N[C@H](C(=O)NCC(=O)N[C@@H](CO)C(=O)N[C@@H](CC(N)=O)C(=O)N[C@H](C(=O)N1CCC[C@H]1C(N)=O)[C@@H](C)O)C(C)C)[C@@H](C)O)N(C)C(=O)[C@H](C)NC(=O)CN(C)C(=O)[C@H](Cc1ccccc1)NC(=O)[C@H](CC(N)=O)NC(=O)[C@H](CC(N)=O)NC(=O)[C@H](CO)NC(=O)[C@H](CO)NC(=O)[C@H](Cc1c[nH]cn1)NC(=O)[C@H](Cc1c[nH]cn1)NC(=O)[C@H](CC(C)C)NC(=O)[C@H](Cc1ccccc1)NC(=O)[C@H](CCC(=O)O)NC(=O)[C@H](C)NC(=O)[C@H](CC(C)C)NC(=O)[C@H](CCCNC(=N)N)NC(=O)[C@H](CCC(N)=O)NC(=O)[C@@H](NC(=O)[C@H](C)NC(=O)[C@@H]1CSSC[C@H](NC(=O)[C@H](CCCNC(=N)N)NC(=O)CC[C@H](NC(=O)CCCCCCCCCCCCCCCCCCC(=O)O)C(=O)O)C(=O)N[C@@H](CC(N)=O)C(=O)N[C@@H]([C@@H](C)O)C(=O)N[C@@H](C)C(=O)N[C@@H]([C@@H](C)O)C(=O)N1)[C@@H](C)O [Compound 1, [19CD]-isoGlu-RC()NTATC()ATQRLAEFLHHSSNNF-Gly(Me)-A-Ile(Me)-LSSTNVGSNTP-NH2] ({C20 diacid-γGlu}-RCNTATCATQRLAEFLHHSSNNF[Sar]A[NMeI]LSSTNVGSNTP-NH2; disulfide 2-7)
- EC50 [1]: 0.21 nM
- Solubility, Acetate buffer pH 4 [2]: SS (SS indicates solubility ≥ 1mg/ml)
- Solubility, Acetate buffer pH 5 [2]: SS (SS indicates solubility ≥ 1mg/ml)
- Solubility, Histidine buffer pH 6 [2]: SS (SS indicates solubility ≥ 1mg/ml)
- Solubility, Histidine buffer pH 7 [2]: SS (SS indicates solubility ≥ 1mg/ml)
- Solubility, Phosphate buffer pH 6 [2]: SS (SS indicates solubility ≥ 1mg/ml)
- Solubility, Phosphate buffer pH 7 [2]: SS (SS indicates solubility ≥ 1mg/ml)
- Solubility, Phosphate buffer pH 7.5 [2]: SS (SS indicates solubility ≥ 1mg/ml)

Compound: CC[C@H](C)[C@@H](C(=O)N[C@@H](CC(C)C)C(=O)N[C@@H](CO)C(=O)N[C@@H](CO)C(=O)N[C@H](C(=O)N[C@@H](CC(N)=O)C(=O)N[C@H](C(=O)NCC(=O)N[C@@H](CO)C(=O)N[C@@H](CC(N)=O)C(=O)N[C@H](C(=O)N1CCC[C@H]1C(N)=O)[C@@H](C)O)C(C)C)[C@@H](C)O)N(C)C(=O)[C@H](C)NC(=O)CN(C)C(=O)[C@H](Cc1ccccc1)NC(=O)[C@H](CC(N)=O)NC(=O)[C@H](CC(N)=O)NC(=O)[C@H](CO)NC(=O)[C@H](CO)NC(=O)[C@H](CCCNC(=N)N)NC(=O)[C@H](Cc1c[nH]cn1)NC(=O)[C@H](CC(C)C)NC(=O)[C@H](Cc1ccccc1)NC(=O)[C@H](CCC(=O)O)NC(=O)[C@H](C)NC(=O)[C@H](CC(C)C)NC(=O)[C@H](CCCNC(=N)N)NC(=O)[C@H](CCC(N)=O)NC(=O)[C@@H](NC(=O)[C@H](C)NC(=O)[C@@H]1CSSC[C@H](NC(=O)[C@H](CCCNC(=N)N)NC(=O)CC[C@H](NC(=O)CCCCCCCCCCCCCCCCCCC(=O)O)C(=O)O)C(=O)N[C@@H](CC(N)=O)C(=O)N[C@@H]([C@@H](C)O)C(=O)N[C@@H](C)C(=O)N[C@@H]([C@@H](C)O)C(=O)N1)[C@@H](C)O [Compound 18, [19CD]-isoGlu-RC()NTATC()ATQRLAEFLHRSSNNF-Gly(Me)-A-Ile(Me)-LSSTNVGSNTP-NH2] ({C20 diacid-γGlu}-RCNTATCATQRLAEFLHRSSNNF[Sar]A[NMeI]LSSTNVGSNTP-NH2; disulfide 2-7)
- EC50 [1]: 0.17 nM
- Solubility, Acetate buffer pH 4 [2]: SS (SS indicates solubility ≥ 1mg/ml)
- Solubility, Acetate buffer pH 5 [2]: SS (SS indicates solubility ≥ 1mg/ml)
- Solubility, Histidine buffer pH 6 [2]: SS (SS indicates solubility ≥ 1mg/ml)
- Solubility, Histidine buffer pH 7 [2]: SS (SS indicates solubility ≥ 1mg/ml)
- Solubility, Phosphate buffer pH 6 [2]: SS (SS indicates solubility ≥ 1mg/ml)
- Solubility, Phosphate buffer pH 7 [2]: SS (SS indicates solubility ≥ 1mg/ml)
- Solubility, Phosphate buffer pH 7.5 [2]: SS (SS indicates solubility ≥ 1mg/ml)
- EC50 [3]: 0.06 nM

Compound: CC[C@H](C)[C@@H](C(=O)N[C@@H](CC(C)C)C(=O)N[C@@H](CO)C(=O)N[C@@H](CO)C(=O)N[C@H](C(=O)N[C@@H](CC(N)=O)C(=O)N[C@H](C(=O)NCC(=O)N[C@@H](CO)C(=O)N[C@@H](CC(N)=O)C(=O)N[C@H](C(=O)N1CCC[C@H]1C(N)=O)[C@@H](C)O)C(C)C)[C@@H](C)O)N(C)C(=O)[C@H](C)NC(=O)CN(C)C(=O)[C@H](Cc1ccccc1)NC(=O)[C@H](CC(N)=O)NC(=O)[C@H](CC(N)=O)NC(=O)[C@H](CO)NC(=O)[C@H](CO)NC(=O)[C@H](CCCNC(=N)N)NC(=O)[C@H](Cc1c[nH]cn1)NC(=O)[C@H](CC(C)C)NC(=O)[C@H](Cc1ccccc1)NC(=O)[C@H](CCC(=O)O)NC(=O)[C@H](C)NC(=O)[C@H](CC(C)C)NC(=O)[C@H](CCCNC(=N)N)NC(=O)[C@H](CCC(N)=O)NC(=O)[C@@H](NC(=O)[C@H](C)NC(=O)[C@@H]1CSSC[C@H](NC(=O)[C@H](CCCCN)NC(=O)[C@H](CCCCN)NC(=O)CC[C@H](NC(=O)CCCCCCCCCCCCCCCCCCC(=O)O)C(=O)O)C(=O)N[C@@H](CC(N)=O)C(=O)N[C@@H]([C@@H](C)O)C(=O)N[C@@H](C)C(=O)N[C@@H]([C@@H](C)O)C(=O)N1)[C@@H](C)O [Compound 87, [19CD]-isoGlu-KKC()NTATC()ATQRLAEFLHRSSNNF-Gly(Me)-A-Ile(Me)-LSSTNVGSNTP-NH2] ({C20 diacid-γGlu}-KKCNTATCATQRLAEFLHRSSNNF[Sar]A[NMeI]LSSTNVGSNTP-NH2; disulfide 3-8)
- Solubility, Acetate buffer pH 4 [2]: SS (SS indicates solubility ≥ 1mg/ml)
- Solubility, Acetate buffer pH 5 [2]: SS (SS indicates solubility ≥ 1mg/ml)
- Solubility, Histidine buffer pH 6 [2]: SS (SS indicates solubility ≥ 1mg/ml)
- Solubility, Histidine buffer pH 7 [2]: SS (SS indicates solubility ≥ 1mg/ml)
- Solubility, Phosphate buffer pH 6 [2]: SS (SS indicates solubility ≥ 1mg/ml)
- Solubility, Phosphate buffer pH 7 [2]: SS (SS indicates solubility ≥ 1mg/ml)
- Solubility, Phosphate buffer pH 7.5 [2]: SS (SS indicates solubility ≥ 1mg/ml)
- EC50 [3]: 0.046 nM

Compound: CC[C@H](C)[C@@H](C(=O)N[C@@H](CC(C)C)C(=O)N[C@@H](CO)C(=O)N[C@@H](CO)C(=O)N[C@H](C(=O)N[C@@H](CCC(=O)O)C(=O)N[C@H](C(=O)NCC(=O)N[C@@H](CO)C(=O)N[C@@H](CCC(=O)O)C(=O)N[C@H](C(=O)N1CCC[C@H]1C(N)=O)[C@@H](C)O)C(C)C)[C@@H](C)O)N(C)C(=O)[C@H](C)NC(=O)CN(C)C(=O)[C@H](Cc1ccccc1)NC(=O)[C@H](CO)NC(=O)[C@H](CO)NC(=O)[C@H](CO)NC(=O)[C@H](CO)NC(=O)[C@H](CCCNC(=N)N)NC(=O)[C@H](Cc1c[nH]cn1)NC(=O)[C@H](CC(C)C)NC(=O)[C@H](Cc1ccccc1)NC(=O)[C@H](CCC(=O)O)NC(=O)[C@H](C)NC(=O)[C@H](CC(C)C)NC(=O)[C@H](CCCNC(=N)N)NC(=O)[C@H](C)NC(=O)[C@@H](NC(=O)[C@H](C)NC(=O)[C@@H]1CSSC[C@H](NC(=O)[C@H](CCCNC(=N)N)NC(=O)CC[C@H](NC(=O)CCCCCCCCCCCCCCCCCCC(=O)O)C(=O)O)C(=O)N[C@@H](CC(N)=O)C(=O)N[C@@H]([C@@H](C)O)C(=O)N[C@@H](C)C(=O)N[C@@H]([C@@H](C)O)C(=O)N1)[C@@H](C)O [Compound 118, [19CD]-isoGlu-RC()NTATC()ATARLAEFLHRSSSSF-Gly(Me)-A-Ile(Me)-LSSTEVGSETP-NH2] ({C20 diacid-γGlu}-RCNTATCATARLAEFLHRSSSSF[Sar]A[NMeI]LSSTEVGSETP-NH2; disulfide 2-7)
- EC50 ([1]; cAMP induction in COS7 cells expressing hAMYR3, average of a minimum of 3 determinations, read-out: hAMY R3 EC50): 0.12 nM
- EC50 ([3]; cAMP induction in COS7 cells expressing hCTR2, average of a minimum of 3 determinations, read-out: hCTR2 EC50): 0.062 nM
